Results: publication PMC2813745, “A novel inhibitor of the PI3K/Akt pathway based on the structure of inositol 1,3,4,5,6-pentakisphosphate” (British Journal of Cancer, 2010)

Experiments:
AKT3 (PKBγ) = AKT3 (PKBγ) (Homo sapiens, UniProt Q9Y243); assay: SelectScreen kinase profiling: AKT3; format: biochemical; conditions: [ATP] 100 µM
Description: (§1) Effect of the indicated compounds on the activity of various kinases was assessed by SelectScreen Kinase Profiling Service (Invitrogen-Life Technologies, Paisley, UK). Assays were performed using 1 μM of the tested compounds and ATP concentration as indicated in the corresponding tables. In the case of […] a screen using 10 μM of the compound was also carried out, as indicated in the corresponding table.

CDC42 BPA (MRCKA) = CDC42 BPA (MRCKA) (Homo sapiens, UniProt Q5VT25); assay: SelectScreen kinase profiling: CDC42 BPA; format: biochemical; conditions: [ATP] 5 µM
Description: as §1

CDK5/p25 = CDK5/p25 (Homo sapiens, UniProt Q00535); assay: SelectScreen kinase profiling: CDK5/p25; format: biochemical; conditions: [ATP] 10 µM
Description: as §1

FRAP1 (mTOR) = FRAP1 (mTOR) (Homo sapiens, UniProt P42345); assay: SelectScreen kinase profiling: mTOR; format: biochemical
Description: as §1

Toxicity in mice = format: in vivo, nude CD-1 mice; conditions: for body weight of the treated animals / toxicity: 12.5, 25, 50 mg kg^−1 day^−1 i.p., 14 consecutive days; for toxic effect: single dose 750 mg kg^−1 i.p.
Description: Each group consisted of 2–3 mice. Body weight, deaths and any other sign of toxicity and changes in behaviour (such as motility, eating and drinking habits) were recorded.
Exponentially growing PC3 cells were harvested, washed twice and resuspended in PBS at a concentration of 2.5 × 10^7 cells ml^−1. A suspension of 5 × 10^6 PC3 cells was injected subcutaneously (s.c.) into the left flank of the recipient mice. When tumours reached a size of ∼70 mm^3 (approximately 15 days after tumour cell implant), mice were divided into seven groups (n=7). […] Control mice were treated with water in an equal volume. The diameters of s.c. growing tumours were measured with a caliper twice a week and the experiment was ended at day 28 after the implantation.
The inositol compounds (12.5–25–50 mg kg^−1 day^−1) and vehicle (water) were given daily by intraperitoneal (i.p.) injections for 14 consecutive days (days 15–28). Tumour size was assessed twice weekly. (A, B) Tumour growth in 2-O-Bn-InsP5-treated mice (A) and InsP5-treated mice (B) compared with control group measured for the duration of the experiment. Results are expressed as mean±s.e. (C) Top: Table showing all P-values for the indicated doses of 2-O-Bn-InsP5 compared to controls at the indicated days of treatment (NS=not significant). Bottom: In vivo anti-tumour activity parameters. The percentage of tumour weight inhibition (TWI%), the tumour growth delay (T−C) and the log cell kill (LCK) were calculated as described in the MATERIALS AND METHODS section. The highest inhibition of tumour volume is reported. […] Tumours were excised 24 h after treatment. Phosphorylation of Akt at its residues Ser473 and Thr308 was assessed by using specific antibodies. Membranes were then stripped and re-probed with an anti-Akt antibody.

MAP2K2 (MEK2) = MAP2K2 (MEK2) (Homo sapiens, UniProt P36507); assay: SelectScreen kinase profiling: MAP2K2; format: biochemical; conditions: [ATP] 100 µM
Description: as §1

CAMK2A (CaMKII alpha) = CAMK2A (CaMKII alpha) (Homo sapiens, UniProt Q9UQM7); assay: SelectScreen kinase profiling: CAMK2A; format: biochemical; conditions: [ATP] 10 µM
Description: as §1

[1] = molecular target: PIK3CA/PIK3R1(p110α/p85α) (Homo sapiens, UniProt P42336); assay: SelectScreen kinase profiling: PIK3CA/PIK3R1; format: biochemical; conditions: [ATP] 25 µM
Description: as §1

LCK = LCK (Homo sapiens, UniProt P06239); assay: SelectScreen kinase profiling: LCK; format: biochemical; conditions: [ATP] 50 µM
Description: as §1

PAK6 = PAK6 (Homo sapiens, UniProt Q9NQU5); assay: SelectScreen kinase profiling: PAK6; format: biochemical; conditions: [ATP] 10 µM
Description: as §1

AMPK A1/B1/G1 = AMPK A1/B1/G1 (Homo sapiens, UniProt Q13131); assay: SelectScreen kinase profiling: AMPK A1/B1/G1; format: biochemical; conditions: 1 µM compound; [ATP] 50 µM
Description: as §1

[2] = molecular target: PIK3CD/PIK3R1(p110δ/p85α) (Homo sapiens, UniProt O00329); assay: SelectScreen kinase profiling: PIK3CD/PIK3R1; format: biochemical; conditions: [ATP] 25 µM
Description: as §1

PRKACA (PKA) = PRKACA (PKA) (Homo sapiens, UniProt P17612); assay: SelectScreen kinase profiling: PRKACA; format: biochemical; conditions: [ATP] 5 µM
Description: as §1

IKBKB (IKKβ) = IKBKB (IKKβ) (Homo sapiens, UniProt O14920); assay: SelectScreen kinase profiling: IKBKB; format: biochemical; conditions: 1 µM compound; [ATP] 5 µM
Description: as §1

SRC = SRC (Homo sapiens, UniProt P12931); assay: SelectScreen kinase profiling: SRC; format: biochemical; conditions: [ATP] 50 µM
Description: as §1

CDK2/cyclin A = CDK2/cyclin A (Homo sapiens, UniProt P24941); assay: SelectScreen kinase profiling: CDK2/cyclin A; format: biochemical; conditions: [ATP] 25 µM
Description: as §1

PRKCZ (PKCζ) = PRKCZ (PKCζ) (Homo sapiens, UniProt Q05513); assay: SelectScreen kinase profiling: PRKCZ; format: biochemical; conditions: [ATP] 5 µM
Description: as §1

PDK1 = molecular target: T1, PDK1 (Homo sapiens, UniProt O15530); assay: SelectScreen kinase profiling: PDK1; format: biochemical; conditions: for IC50: 10-point titration, [ATP] 100 μM
T1 sequence (O15530 1-556): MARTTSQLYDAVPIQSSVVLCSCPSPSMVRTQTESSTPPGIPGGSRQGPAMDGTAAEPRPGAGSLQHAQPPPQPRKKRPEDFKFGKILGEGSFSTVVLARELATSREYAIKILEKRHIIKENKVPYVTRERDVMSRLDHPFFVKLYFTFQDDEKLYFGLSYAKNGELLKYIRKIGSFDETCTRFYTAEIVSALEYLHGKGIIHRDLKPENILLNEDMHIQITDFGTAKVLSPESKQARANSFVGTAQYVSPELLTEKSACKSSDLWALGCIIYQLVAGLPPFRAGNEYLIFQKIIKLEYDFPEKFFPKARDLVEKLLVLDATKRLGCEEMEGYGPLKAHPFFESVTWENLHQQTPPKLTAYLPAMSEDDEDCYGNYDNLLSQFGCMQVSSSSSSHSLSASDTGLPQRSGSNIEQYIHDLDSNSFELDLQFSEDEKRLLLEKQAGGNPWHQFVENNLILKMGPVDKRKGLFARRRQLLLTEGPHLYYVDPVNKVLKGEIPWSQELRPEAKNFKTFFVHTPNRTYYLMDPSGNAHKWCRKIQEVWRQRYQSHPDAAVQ
Description: as §1

[3] = system: Akt phosphorylation in ASPC1; assay: Akt activation by western blot in ASPC1; format: cell-based, human; conditions: ASPC1, results not shown
[4] = 1 µM compound, [ATP] 100 µM, single point

Chain of AKT3 (PKBγ) (Q9Y243 whole entry): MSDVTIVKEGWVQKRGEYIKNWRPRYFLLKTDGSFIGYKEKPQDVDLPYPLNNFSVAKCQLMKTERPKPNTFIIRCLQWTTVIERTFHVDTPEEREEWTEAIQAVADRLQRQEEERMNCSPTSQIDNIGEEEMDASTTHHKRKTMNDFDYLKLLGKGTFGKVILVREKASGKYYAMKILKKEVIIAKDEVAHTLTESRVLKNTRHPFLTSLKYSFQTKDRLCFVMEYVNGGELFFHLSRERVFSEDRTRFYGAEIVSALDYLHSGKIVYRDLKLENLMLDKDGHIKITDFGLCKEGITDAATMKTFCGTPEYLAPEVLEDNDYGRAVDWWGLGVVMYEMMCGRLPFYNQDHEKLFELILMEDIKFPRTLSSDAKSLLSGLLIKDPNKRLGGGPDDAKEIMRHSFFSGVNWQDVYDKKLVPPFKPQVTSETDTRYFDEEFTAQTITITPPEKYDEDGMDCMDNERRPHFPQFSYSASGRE
Chain of PIK3CA/PIK3R1(p110α/p85α) (P42336 whole entry): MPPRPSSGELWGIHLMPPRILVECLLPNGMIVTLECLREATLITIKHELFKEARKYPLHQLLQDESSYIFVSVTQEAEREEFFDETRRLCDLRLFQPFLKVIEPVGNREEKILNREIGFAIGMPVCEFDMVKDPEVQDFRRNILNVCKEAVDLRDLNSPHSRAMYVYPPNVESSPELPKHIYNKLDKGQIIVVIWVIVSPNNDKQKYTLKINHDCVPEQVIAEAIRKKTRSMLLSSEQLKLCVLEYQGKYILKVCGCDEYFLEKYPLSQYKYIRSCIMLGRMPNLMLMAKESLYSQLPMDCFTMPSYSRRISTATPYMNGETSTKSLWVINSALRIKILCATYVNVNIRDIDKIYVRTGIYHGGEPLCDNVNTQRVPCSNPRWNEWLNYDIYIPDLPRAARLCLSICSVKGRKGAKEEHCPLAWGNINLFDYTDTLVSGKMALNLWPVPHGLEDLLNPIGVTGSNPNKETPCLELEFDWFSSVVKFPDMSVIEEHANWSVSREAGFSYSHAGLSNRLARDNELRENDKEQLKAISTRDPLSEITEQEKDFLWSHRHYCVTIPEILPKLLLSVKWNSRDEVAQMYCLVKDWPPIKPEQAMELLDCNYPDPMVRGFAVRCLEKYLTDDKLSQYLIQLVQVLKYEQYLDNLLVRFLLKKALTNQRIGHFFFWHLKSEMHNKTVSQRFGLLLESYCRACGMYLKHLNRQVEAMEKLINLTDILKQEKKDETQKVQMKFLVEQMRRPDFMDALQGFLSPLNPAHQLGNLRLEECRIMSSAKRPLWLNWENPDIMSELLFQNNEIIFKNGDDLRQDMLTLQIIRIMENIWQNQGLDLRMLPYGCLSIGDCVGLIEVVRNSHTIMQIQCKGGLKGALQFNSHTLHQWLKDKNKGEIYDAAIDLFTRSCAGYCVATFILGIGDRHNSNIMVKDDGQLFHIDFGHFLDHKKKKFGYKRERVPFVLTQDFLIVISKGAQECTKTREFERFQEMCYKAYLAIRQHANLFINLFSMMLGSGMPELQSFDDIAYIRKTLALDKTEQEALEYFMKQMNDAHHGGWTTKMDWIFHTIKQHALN
Chain of PIK3CA/PIK3R1(p110α/p85α) (P27986 whole entry partner): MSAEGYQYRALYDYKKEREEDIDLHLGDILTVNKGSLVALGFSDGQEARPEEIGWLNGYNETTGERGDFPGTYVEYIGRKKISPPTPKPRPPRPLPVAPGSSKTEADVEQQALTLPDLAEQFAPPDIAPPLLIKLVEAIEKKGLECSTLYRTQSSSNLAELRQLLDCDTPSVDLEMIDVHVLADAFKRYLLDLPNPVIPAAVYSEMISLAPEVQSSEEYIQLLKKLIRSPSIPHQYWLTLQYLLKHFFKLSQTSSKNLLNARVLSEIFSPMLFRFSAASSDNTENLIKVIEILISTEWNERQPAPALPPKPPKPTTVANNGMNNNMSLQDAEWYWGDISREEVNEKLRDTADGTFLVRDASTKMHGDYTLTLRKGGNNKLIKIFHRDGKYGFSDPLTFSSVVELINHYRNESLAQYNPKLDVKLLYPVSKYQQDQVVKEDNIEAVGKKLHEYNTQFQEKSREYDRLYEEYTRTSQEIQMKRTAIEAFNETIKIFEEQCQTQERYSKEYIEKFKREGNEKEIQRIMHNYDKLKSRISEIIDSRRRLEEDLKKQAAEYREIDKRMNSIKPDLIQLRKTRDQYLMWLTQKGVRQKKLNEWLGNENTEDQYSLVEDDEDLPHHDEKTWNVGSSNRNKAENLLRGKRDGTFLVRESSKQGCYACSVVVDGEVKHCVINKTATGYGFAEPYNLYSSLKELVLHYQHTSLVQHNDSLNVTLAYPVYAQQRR
Chain of PRKCZ (PKCζ) (Q05513 whole entry): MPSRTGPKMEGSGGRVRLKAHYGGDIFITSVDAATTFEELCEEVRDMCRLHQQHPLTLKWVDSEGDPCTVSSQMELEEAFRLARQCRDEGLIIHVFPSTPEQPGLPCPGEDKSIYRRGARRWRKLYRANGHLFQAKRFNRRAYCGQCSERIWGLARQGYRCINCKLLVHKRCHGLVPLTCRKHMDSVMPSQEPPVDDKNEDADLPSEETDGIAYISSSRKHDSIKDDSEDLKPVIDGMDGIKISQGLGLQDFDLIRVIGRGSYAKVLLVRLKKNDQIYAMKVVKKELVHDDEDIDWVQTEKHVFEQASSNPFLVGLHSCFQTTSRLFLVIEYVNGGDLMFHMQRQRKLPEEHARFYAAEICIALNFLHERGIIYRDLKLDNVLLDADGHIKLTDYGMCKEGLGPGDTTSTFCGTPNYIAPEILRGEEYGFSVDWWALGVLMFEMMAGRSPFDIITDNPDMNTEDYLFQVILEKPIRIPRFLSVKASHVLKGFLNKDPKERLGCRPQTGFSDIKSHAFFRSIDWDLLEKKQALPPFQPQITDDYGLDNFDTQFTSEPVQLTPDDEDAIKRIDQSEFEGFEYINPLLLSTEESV
Chain of CAMK2A (CaMKII alpha) (Q9UQM7 whole entry): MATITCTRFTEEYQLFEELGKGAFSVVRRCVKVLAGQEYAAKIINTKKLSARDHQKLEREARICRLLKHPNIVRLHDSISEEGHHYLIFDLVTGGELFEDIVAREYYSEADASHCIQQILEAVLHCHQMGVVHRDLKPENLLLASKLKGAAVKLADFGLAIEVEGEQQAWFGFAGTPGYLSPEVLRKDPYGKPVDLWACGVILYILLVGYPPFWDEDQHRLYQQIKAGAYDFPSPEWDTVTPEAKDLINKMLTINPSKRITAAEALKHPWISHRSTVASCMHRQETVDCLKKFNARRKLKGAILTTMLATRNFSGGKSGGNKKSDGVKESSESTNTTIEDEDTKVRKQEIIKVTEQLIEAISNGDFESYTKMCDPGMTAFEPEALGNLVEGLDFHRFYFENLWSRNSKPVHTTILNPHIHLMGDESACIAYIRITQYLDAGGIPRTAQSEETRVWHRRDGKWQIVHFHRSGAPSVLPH
Chain of AMPK A1/B1/G1 (Q13131 whole entry): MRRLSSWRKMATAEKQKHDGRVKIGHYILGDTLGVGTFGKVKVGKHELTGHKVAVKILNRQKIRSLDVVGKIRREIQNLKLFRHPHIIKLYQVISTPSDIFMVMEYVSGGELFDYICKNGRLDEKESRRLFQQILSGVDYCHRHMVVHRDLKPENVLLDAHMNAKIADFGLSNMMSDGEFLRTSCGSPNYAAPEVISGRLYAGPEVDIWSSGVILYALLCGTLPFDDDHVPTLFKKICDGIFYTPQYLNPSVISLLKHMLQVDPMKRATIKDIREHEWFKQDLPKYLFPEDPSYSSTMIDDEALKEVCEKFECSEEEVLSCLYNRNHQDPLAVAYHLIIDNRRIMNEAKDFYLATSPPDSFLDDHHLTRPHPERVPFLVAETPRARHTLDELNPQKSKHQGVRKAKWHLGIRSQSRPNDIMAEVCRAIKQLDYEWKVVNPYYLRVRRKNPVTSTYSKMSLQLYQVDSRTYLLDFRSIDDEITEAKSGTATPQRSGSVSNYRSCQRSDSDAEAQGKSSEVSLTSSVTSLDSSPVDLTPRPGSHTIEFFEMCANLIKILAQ
Chain of AMPK A1/B1/G1 (Q9Y478 whole entry partner): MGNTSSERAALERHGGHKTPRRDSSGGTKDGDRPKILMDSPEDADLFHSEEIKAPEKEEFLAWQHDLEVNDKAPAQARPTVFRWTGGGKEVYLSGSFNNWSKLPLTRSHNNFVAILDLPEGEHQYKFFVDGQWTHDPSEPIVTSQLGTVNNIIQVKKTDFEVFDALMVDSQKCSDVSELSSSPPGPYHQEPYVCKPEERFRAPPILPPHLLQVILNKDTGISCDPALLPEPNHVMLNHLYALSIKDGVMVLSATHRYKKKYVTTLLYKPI
Chain of AMPK A1/B1/G1 (P54619 whole entry partner): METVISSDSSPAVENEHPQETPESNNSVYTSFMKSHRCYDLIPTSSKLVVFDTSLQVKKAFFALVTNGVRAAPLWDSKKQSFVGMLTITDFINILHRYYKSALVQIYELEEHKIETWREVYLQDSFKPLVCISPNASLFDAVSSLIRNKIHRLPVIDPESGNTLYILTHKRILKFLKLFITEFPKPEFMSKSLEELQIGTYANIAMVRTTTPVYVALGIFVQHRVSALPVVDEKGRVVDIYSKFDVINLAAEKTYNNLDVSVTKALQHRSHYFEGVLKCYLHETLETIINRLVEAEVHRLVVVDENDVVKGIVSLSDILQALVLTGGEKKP
Chain of MAP2K2 (MEK2) (P36507 whole entry): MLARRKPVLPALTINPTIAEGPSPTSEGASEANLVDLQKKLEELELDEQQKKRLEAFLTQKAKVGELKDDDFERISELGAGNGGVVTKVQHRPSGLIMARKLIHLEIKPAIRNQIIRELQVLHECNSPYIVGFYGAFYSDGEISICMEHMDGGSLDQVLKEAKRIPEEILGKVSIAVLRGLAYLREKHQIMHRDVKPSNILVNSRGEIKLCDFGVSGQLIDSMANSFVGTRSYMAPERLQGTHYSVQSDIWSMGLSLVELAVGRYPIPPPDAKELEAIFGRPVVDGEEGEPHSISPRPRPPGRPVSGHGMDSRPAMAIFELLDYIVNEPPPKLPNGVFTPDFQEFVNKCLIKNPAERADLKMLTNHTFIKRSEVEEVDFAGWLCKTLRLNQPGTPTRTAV

## O=P(O)(O)OC1C(O)C(OP(=O)(O)O)C(OP(=O)(O)O)C(OP(=O)(O)O)C1OP(=O)(O)O (stereo not drawn) [InsP5, inositol 1,3,4,5,6-pentakisphosphate]
AKT3 (PKBγ); 10 µM compound
  inhibition at 10 µM: 10%
CDC42 BPA (MRCKA); 10 µM compound
  inhibition at 10 µM: 0%
CDK5/p25; 10 µM compound
  inhibition at 10 µM: 13%
FRAP1 (mTOR); 10 µM compound, [ATP] 10 µM
  % Inhibition Mean: did not inhibit mTOR
  inhibition at 10 µM: 16%
Toxicity in mice
  body weight of the treated animals: not different from the untreated mice
  toxicity: no evidence of toxicity
  toxic effect: did not cause any major toxic effect
MAP2K2 (MEK2); 10 µM compound
  inhibition at 10 µM: 3%
CAMK2A (CaMKII alpha); 10 µM compound
  inhibition at 10 µM: 17%
[1]; 10 µM compound
  inhibition at 10 µM: 5%
LCK; 10 µM compound
  inhibition at 10 µM: -26%
PAK6; 10 µM compound
  inhibition at 10 µM: 20%
AMPK A1/B1/G1
  inhibition at 1 µM: 4%
[2]; 10 µM compound
  inhibition at 10 µM: -2%
PRKACA (PKA); 10 µM compound
  inhibition at 10 µM: 5%
IKBKB (IKKβ)
  inhibition at 1 µM: 1%
SRC; 10 µM compound
  inhibition at 10 µM: 10%
CDK2/cyclin A; 10 µM compound
  inhibition at 10 µM: 9%
PRKCZ (PKCζ); 10 µM compound
  inhibition at 10 µM: -8%
PDK1; [4]
  % Inhibition Mean: 68%
  inhibition at 1 µM: 71%
PDK1; 10 µM compound, [ATP] 100 µM
  inhibition at 10 µM: 70%
PDK1
  IC50: 613 nM

## O=P(O)(O)OC1C(OCc2ccccc2)C(OP(=O)(O)O)C(OP(=O)(O)O)C(OP(=O)(O)O)C1OP(=O)(O)O (stereo not drawn) [2-O-Bn-InsP5, 2-O-benzyl-myo-inositol 1,3,4,5,6-pentakisphosphate]
AKT3 (PKBγ); 1 µM compound
  inhibition at 1 µM: 10%
CDC42 BPA (MRCKA); 1 µM compound
  inhibition at 1 µM: 17%
CDK5/p25; 1 µM compound
  inhibition at 1 µM: 3%
FRAP1 (mTOR); 1 µM compound, [ATP] 10 µM
  inhibition at 1 µM: 48%
FRAP1 (mTOR); 10-point titration, [ATP] 10 μM
  IC50: 1300 nM
Toxicity in mice
  body weight of the treated animals: not different from the untreated mice
  toxicity: no evidence of toxicity
  toxic effect: did not cause any major toxic effect
Toxicity in mice; relative to the active dose
  tolerability in vivo: well tolerated in vivo even at concentrations 15 times higher the active dose
MAP2K2 (MEK2); 1 µM compound
  inhibition at 1 µM: 8%
CAMK2A (CaMKII alpha); 1 µM compound
  inhibition at 1 µM: -2%
[1]; 1 µM compound
  inhibition at 1 µM: 2%
LCK; 1 µM compound
  inhibition at 1 µM: 7%
PAK6; 1 µM compound
  inhibition at 1 µM: 9%
[3]
  Akt phosphorylation: able to block Akt phosphorylation
AMPK A1/B1/G1
  inhibition at 1 µM: 16%
[2]; 1 µM compound
  inhibition at 1 µM: 6%
PRKACA (PKA); 1 µM compound
  inhibition at 1 µM: 4%
IKBKB (IKKβ)
  inhibition at 1 µM: 13%
SRC; 1 µM compound
  inhibition at 1 µM: 4%
CDK2/cyclin A; 1 µM compound
  inhibition at 1 µM: 2%
PRKCZ (PKCζ); 1 µM compound
  inhibition at 1 µM: 10%
PDK1; [4]
  inhibition at 1 µM: 79%
PDK1
  IC50: 26.5 nM
